The melting point is the temperature, or range, at which the solid turns liquid.

The structures appear in SMILES notation.

The molecule `O=C(NCc1ccc(F)cc1)Nc1ccc(CN2C(=O)[C@H]3CCC[C@H]3N(C(=O)CN3C(=O)c4ccccc4C3=O)c3ccccc32)cc1` (relative stereo) yielded a melting point of 154 to 156 °C.

Turning to `O=C1CC2(CCCC2)c2ccc(Cl)cc21`, the melting point is 54 °C.

`Cc1cccc(C2=C(c3ccc(S(C)(=O)=O)cc3)OC3(CCCCC3)C2=O)c1` yielded a melting point of 154 to 155 °C.

For `COc1ccccc1N1CCN(CCn2c(O)nc3sc4c(c3c2=O)CCN(C(C)=O)C4)CC1`, the melting point was in the range of 135 to 137 °C.

`O=[N+]([O-])c1ccc(SCc2cnc3ccccn23)cc1` returned a melting point of 174 to 175 °C.

Take `COC(=O)CCc1oc(Cl)nc1-c1ccc(Cl)cc1`: the melting point lay in the range of 71 to 72 °C.

In the case of `Cn1ncc(C(=O)O)c1C(=O)Nc1ccn2nc(N3CCCC3)nc2c1`, the melting point was > 250 °C.

For the molecule `CC(C)(C)c1cc(C2=NOC(CCOc3ccc([N+](=O)[O-])cc3)C2)cc(C(C)(C)C)c1O` (stereo not drawn), the melting point was in the range of 151 to 153 °C.

For `COc1cc(CC(C#N)=CN2CCOCC2)cc(OC)c1N`, the melting point is 128 to 129 °C.

The molecule `OCc1cccc(-c2cc3nccnc3[nH]2)c1` registered a melting point of 225 to 226 °C.

For `CCOC(=O)c1cc2ccc3sc4ccccc4c3c2n1C`, the melting point lay in the range of 85 to 86 °C.

Regarding `O=C1CN(Cc2cnc(-c3ccc(C(CC4CCOCC4)c4ccc(S(=O)(=O)C5CC5)cc4)[nH]3)s2)C(=O)N1` (stereo not drawn), the melting point lay in the range of 184 to 185 °C.

As for `O=C(Nc1ccc2[nH]cc(C3CCNCC3)c2c1)c1ccc(F)cc1`, the melting point lay in the range of 229 to 230 °C.

As to `CC(C)c1nn(-c2ccc(C(F)(F)F)cn2)cc1C=O`, the melting point lay within 89 to 90 °C.

In the case of `C=Cc1c(C(=O)NC2CC2)nnn1-c1ccc(C(=O)NCC)cc1`, the melting point was 162 °C.

For the molecule `Clc1ccc2c(c1)CCC(c1cccnc1)O2` (stereo not drawn), the melting point lay in the range of 60 to 63 °C.

`O=C1C[C@H](NC(=O)C(F)(F)F)C(=O)O1`: the melting point lay within 116 to 118 °C.

On to `COc1ccc2ccc3c(c2c1)C=C(C#N)CO3`, for which the melting point came to 134 °C.

For the molecule `CSCC(C)(C)NC(=O)c1c(I)cccc1-c1ccc(C(F)(F)F)cc1`, the melting point fell in the range of 194 to 196 °C.

For the molecule `C1=Cc2ccccc2SS1`, the melting point is 82 to 83 °C.

Molecule `COc1cc2c(cc1OC)C(c1ccco1)=NN=C(C)C2` yielded a melting point of 155 to 157 °C.

As for `CCCCCCCCC(=O)Oc1ccc(-c2ccc(C#N)cc2)cc1`, the melting point was in the range of 43.2 to 43.6 °C.

`CC(C)C[C@@H](C=O)NC(=O)[C@H](Cc1c[nH]cn1)NC(=O)[C@H](Cc1ccccc1)NC(=O)CCCc1ccccc1` gave a melting point of 98 to 103 °C.

As to `CCOP(=O)(OCC)C(Nc1ccccn1)P(=O)(OCC)OCC`, the melting point fell in the range of 63 to 66 °C.

As for `COc1ccc(C(=O)c2ccoc2)c(Cl)c1Cl`, the melting point lay within 118 to 122 °C.

Take `CS(=O)(=O)Nc1cccc(Br)n1`: the melting point lay in the range of 90 to 94 °C.

Regarding `O=C(O)c1ccc2c(=O)nc(-c3ccccn3)sc2c1`, the melting point amounted to 295 °C.

With `CSc1c(C(Cc2ccc(F)cc2)C(=O)O)ccc2c3ccccc3n(Cc3ccc(F)cc3)c12` (stereo not drawn), the melting point lay in the range of 90 to 94 °C.

Molecule `CCCCCN1C(=O)C2(COc3cc4nc(C)sc4cc32)c2ccccc21` (stereo not drawn) returned a melting point of 105 to 107 °C.

For `CC(Oc1ccc(Oc2ccc(Oc3ccc(OC(C)C(=O)O)cc3)cc2)cc1)C(=O)O` (stereo not drawn), the melting point was in the range of 135 to 136 °C.

Turning to `CS(=O)(=O)OCc1ccc(-c2nnc3n2-c2cccnc2Nc2ccccc2-3)cc1`, the melting point was 252 to 253 °C.

The molecule `CCc1ccc(Cn2cc(-c3cn(C4CC(O)C(CO)O4)c(=O)[nH]c3=O)nn2)cc1` (stereo not drawn) returned a melting point of 201 °C.

Turning to `N#Cc1cccc(C=Nc2ccc(F)cc2)c1`, the melting point is 101 °C.

As for `O=c1nc(-c2ccncc2O)nc2n(C3CCCC3)[nH]c(C(F)(F)F)c1-2`, the melting point was 205 to 206 °C.

As for `O=C(NCCCCCCO)OC1CCN(C(=O)OCc2ccccc2)CC1`, the melting point fell in the range of 50 to 52 °C.

With `Nc1cc(Cl)c(N)c2c1C(=O)c1ccccc1C2=O`, the melting point lay in the range of 207 to 210 °C.

On to `COC(=O)c1cc(CSc2ccccc2)cnc1C1=NC(C)(C(C)C)C(=O)N1` (stereo not drawn), for which the melting point was 135 to 138 °C.

Take `O=C1OC(C(O)CO)CCN1Cc1ccccc1` (stereo not drawn): the melting point lay in the range of 100 to 102 °C.

The molecule `CCCc1ccc(Cc2c(C(F)(F)F)[nH][nH]c2=O)cc1` gave a melting point of 114 to 116 °C.

The molecule `COc1cc2c(cc1OC)CCC(C(=O)N1CCN(C(=O)c3ccc(OC)c(OC)c3OC)CC1)=C2` showed a melting point of 166 to 167 °C.

In turn, `CCCCc1nc2ccccn2c(=O)c1-c1ccc(NC2CCN(C(=O)OC(C)(C)C)C2)cc1` (stereo not drawn) returned a melting point of 116 to 118 °C.

Molecule `CC(=O)OCC1CCc2c(C3=C(c4cn(C)c5ccccc45)C(=O)OC3=O)c3ccccc3n2CC1` (stereo not drawn) gave a melting point of 70 °C.

The molecule `O=C(O)c1c(Cl)ccc(S(=O)(=O)N2CCCCC2)c1Cl` had a melting point of 142 to 145 °C.

Molecule `CCCCCCCc1ccccc1C=CC(=O)c1ccc(OCC=C(C)C)cc1O` displayed a melting point of 65 to 67 °C.

Molecule `C[C@H](NC(=O)c1c(CN2CCNCC2)c(-c2ccccc2)nc2ccccc12)C1CCCCC1` displayed a melting point of 116 to 118 °C.

The molecule `CCn1ncnc1COc1nn2c(-c3ccccc3F)nncc2c1C(C)(C)CC` came in with a melting point of 89 to 92 °C.

Take `CNCCOc1cc(NC(=O)c2ccc(-c3ccc(-c4noc(C)n4)cc3C)cc2)ccc1OC`: the melting point fell in the range of 97 to 99 °C.

`CC(=O)NCCSCC(=O)[C@H](Cc1ccccc1)NC(=O)[C@H](CC(C)C)NC(=O)OCc1ccccc1` had a melting point of 122 to 123 °C.

`Cn1nc2ccc(Cl)nn2c1=O` displayed a melting point of 176 to 177 °C.

Consider `Cc1nc(Cl)c([N+](=O)[O-])c(NCC(C)(C)NC(=O)OC(C)(C)C)c1C`, for which the melting point was in the range of 97 to 100 °C.

In turn, `N#Cc1c(O)csc1N` yielded a melting point of 300 °C.

With `CCN(Cc1cccc(-c2ccc(CC3SC(=O)NC3=O)cc2)c1)C(=O)OC(C)(C)C` (stereo not drawn), the melting point was determined as 103 °C.

On to `CC(NC(=O)c1ccccc1I)C(O)c1ccccc1` (stereo not drawn), for which the melting point lay in the range of 129 to 130 °C.

Molecule `COC(=O)c1ccc(OCCNC(=O)OCc2ccccc2)c(Cl)c1` displayed a melting point of 81 °C.

`CC(C)(C)OC(=O)C=Cc1cc(Br)cc(Cc2cccnc2)c1` showed a melting point of 97 to 99 °C.

Molecule `OP(O)C(NC(c1ccccc1)c1ccccc1)c1ccco1` (stereo not drawn) yielded a melting point of 193 °C.

On to `O=C1CNC(=O)[C@@H](CO)N1`, for which the melting point worked out at 218 °C.

Molecule `CCCCc1ncc(C(C)CC(=O)O)n1Cc1ccccc1Cl` (stereo not drawn) came in with a melting point of 131 to 133 °C.

In the case of `CN1CCN(c2ccc(N)cc2F)CC1`, the melting point fell in the range of 89 to 91 °C.

With `O=C(NCCc1ccccc1Cl)c1c(Cl)ccc2nc(N3CCC(C(=O)O)CC3)ccc12`, the melting point fell in the range of 250 to 253 °C.

With `CCOC(=O)C1=C(C)NC(c2csc(Cl)n2)=NC1c1ccc(F)cc1Cl` (stereo not drawn), the melting point is 141 to 143 °C.

In turn, `CS(=O)(=O)c1ccc(-c2oc(-c3ccccc3)nc2-c2ccc(F)cc2)cc1` had a melting point of 204 to 205 °C.

Take `COC(=O)Cn1nnc(-c2ccc(C=Cc3ccc(-c4nc5ccccc5o4)cc3)cc2)c1C#N`: the melting point was 248 to 249 °C.

`CC(CSC(=S)c1ccccc1)C(=O)N1CCCC1C(=O)O` (stereo not drawn) showed a melting point of 157 to 158 °C.

In turn, `CCOC(=O)c1ccn2c(C(=O)c3cccc(O)c3)c(-c3ccccc3)cc2c1` yielded a melting point of 193 to 195 °C.

Molecule `CC(=O)N[C@@H](C)c1ccc(CCl)cc1` came in with a melting point of 114 to 116 °C.

Take `CC(C#Cc1ccc(Br)cc1)N(O)C(N)=O` (stereo not drawn): the melting point lay in the range of 155 to 157 °C.

For the molecule `Cc1cc(N2CCNCC2)ccc1NS(C)(=O)=O`, the melting point fell in the range of 79 to 81 °C.

For `N#CCOc1ccc(CCNC(=O)OCc2ccccc2)cc1`, the melting point is 110 to 115 °C.

The molecule `O=C(Nc1ccc2cc(CN3CCCCCC3)cnc2c1)c1ccc(-c2ccc(F)cc2)cc1` registered a melting point of 202 °C.

Consider `C#CCOc1ncc(F)cc1OC`, for which the melting point lay within 67 to 69 °C.

As to `COc1cccc2c3c(c(=O)[nH]c12)CCN3c1cccc(C)c1`, the melting point was 155 to 157 °C.

The molecule `N=C(Nc1ccc(Cl)cc1)Nc1ncccc1OCc1ccccc1` returned a melting point of 170 to 172 °C.

`COc1ccc(-c2c(C)c3ccc(O)cc3oc2=O)c(O)c1` displayed a melting point of 213 to 214 °C.

As to `CN1CC=C(c2c[nH]c3ccc(NC(=N)c4cccs4)cc23)C(F)C1` (stereo not drawn), the melting point lay within 127 to 129 °C.

`CC(C)N(C)c1nccc(Oc2ccc(NC(=O)c3cc(F)cc(N4CCCCC4)c3)c3ccccc23)n1` came in with a melting point of 102 to 104 °C.

Regarding `COc1ccc(CSc2nnc(-c3ccnc(NC(=O)CCc4ccccc4)c3)o2)cc1C(F)(F)F`, the melting point was in the range of 180 to 181 °C.

Consider `CCCCC1Cc2c(c3cccnc3n(-c3ccc(F)cc3)c2=O)O1` (stereo not drawn), for which the melting point lay in the range of 258 to 260 °C.

Take `O=C(NCC1CC1)C(c1ccccc1)c1ccccc1`: the melting point worked out at 130 °C.

Regarding `COc1cc(CC(=O)NC(CC(C)C)c2cc(CC(NC(C)=O)C(=O)O)on2)ccc1NC(=O)Nc1ccccc1C` (stereo not drawn), the melting point was in the range of 123 to 125 °C.

The molecule `Cc1ccc(NC(=S)Nc2cccc3c2C2CCCCN2C3=O)nc1` (stereo not drawn) gave a melting point of 232 °C.

In turn, `CN(CCOc1ccc(CC(OCC(F)(F)F)C(=O)O)cc1)c1nc2ccccc2o1` (stereo not drawn) gave a melting point of 116 to 117 °C.

`CSc1ncc2nc(C)nc(Nc3ccc(F)c(Cl)c3)c2n1`: the melting point fell in the range of 70 to 75 °C.

The molecule `CCNC(=O)c1ccc(CN2CCN(c3ccncc3)CC2)cc1` returned a melting point of 213 to 215 °C.

`Cc1cc(C(Cc2ccc(CCCc3nc(-c4ccccc4)oc3C)cc2)C(=O)O)on1` (stereo not drawn) showed a melting point of 133 to 135 °C.

In turn, `COc1ccc([C@H]2O[C@](O[Si](C)(C)C)(C(F)(F)F)C(C)(C)N2C(=O)c2ccccc2)cc1` (racemic) displayed a melting point of 120 to 123 °C.

Regarding `O=C1CCOc2c1ccc(O)c2CCCc1ccccc1`, the melting point is 110 to 112 °C.

Consider `Cc1ccc(-c2ccc3c(c2)C=C(C(=O)Nc2ccc(CS(=O)c4ccccc4)cc2)CCO3)cc1` (stereo not drawn), for which the melting point was 127 to 128 °C.

These data come from a melting point compilation (Tetko et al.; mined from patent text by program, amines drawn as free bases though some values may be those of a salt).
